Assay results from US11059808B2, “Substituted phenylpyrrolecarboxamides with therapeutic activity in HIV” (New York Blood Center, Inc., priority 2014, dated 2021).

Experiments:
TZM-bl cells = test: Cytotoxicity in TZM-bl cells (XTT); type: cell-based; conditions: for CC50: XTT, 3 days
Description: The cytotoxicity of test compounds in TZM-bl cells was also measured by the XTT method described previously^7. […] The soluble intracellular formazan was quantitated colorimetrically at 450 nm 4 h later. The percent of cytotoxicity and the CC50 values were calculated as above. (See Table 4)

[1] = system: HIV-1 pseudovirus pseudotyped with HXB2 Env; test: microbe, parasite or virus in culture; type: cell-based; conditions: single cycle assay, TZM-bl cells infected with HIV-1 pseudovirus pseudotyped with HXB2 Env;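 also: endpoint is IC50 for inhibition of pseudovirus infection of TZM-bl cells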
[2] = Human immunodeficiency virus 1, HXB2, TZM-bl

SMILES	CC50 (TZM-bl cells) [µM]	IC50 [1, 2] [µM]	IC50 [1] [µM]	percentage in brackets after CC50 >51 (TZM-bl cells; printed "(30%)" without explanation, presumably toxicity at 51 μM) [%]
NCC(NC(=O)c1ccc(-c2ccc(Cl)cc2)[nH]1)c1ncc(CO)s1 (single isomer, unassigned) [Compound 103]	37.1 ± 0.3	0.75 ± 0.2		
Cc1nc(C(CN)NC(=O)c2ncc(-c3ccc(Cl)cc3)[nH]2)sc1CO (single isomer, unassigned) [Compound 96]	> 51		~51	
Cc1nc(C(CCN)NC(=O)c2ccc(-c3ccc(Cl)cc3)[nH]2)sc1CO (single isomer, unassigned) [Compound 89]	41 ± 1		4 ± 0.3	
Cc1ccc(-c2ccc(C(=O)NC(c3ncc(CO)s3)C(C)(C)N)[nH]2)cc1F (single isomer, unassigned) [Compound 126]	18.1 ± 0.7		0.54 ± 0.01	
NCC(NC(=O)c1ccc(-c2ccc(Cl)c(F)c2)[nH]1)c1ncc(CO)s1 (single isomer, unassigned) [Compound 102]	31.8 ± 0.4		0.77 ± 0.04	
CC(=O)NCC(NC(=O)c1ccc(-c2ccc(Cl)c(F)c2)[nH]1)c1nc(C)c(CO)s1 (single isomer, unassigned) [Compound 61]	> 44			
Cc1nc(C(NC(=O)c2ccc(-c3ccc(Cl)cc3)[nH]2)C2CCCCN2)[nH]c1CO (single isomer, unassigned) [Compound 34]	34 ± 0.1		16 ± 0.1	
Cc1nc(C(CN)NC(=O)c2ccc(-c3ccc(Cl)cc3)n2C)sc1CO (single isomer, unassigned) [Compound 92]	36.7 ± 0.4		25.8 ± 1.1	
Cc1nc(C(NC(=O)c2ccc(-c3ccc(Cl)c(F)c3)[nH]2)C2CCCCN2)[nH]c1CO (single isomer, unassigned) [Compound 36]	31.5 ± 0.2		16.2 ± 0.2	
CNCC(NC(=O)c1ccc(-c2ccc(Cl)c(F)c2)[nH]1)c1nc(C)c(CO)s1 (single isomer, unassigned) [Compound 57]	~20		~0.6	
Cc1ccc(-c2ccc(C(=O)NC(CN)c3ncc(CO)s3)[nH]2)cc1F (single isomer, unassigned) [Compound 100]	39.2 ± 0.8			
CC(=O)NCC(NC(=O)c1ccc(-c2ccc(Cl)c(F)c2)[nH]1)c1nc(C)c(CO)s1 (single isomer, unassigned) [Compound 60]	> 44			
Cc1nc(C(CN)NC(=O)c2ccc(-c3ccc(Cl)cc3)[nH]2)sc1CO (single isomer, unassigned) [Compound 40]	~40			
Cc1ccc(-c2ccc(C(=O)NC(c3nc(C)c(CO)s3)C3CCCCN3)[nH]2)cc1F (single isomer, unassigned) [Compound 23]	≥ 36		3.8 ± 0.3	
CNCCC(NC(=O)c1ccc(-c2ccc(Cl)cc2)[nH]1)c1nc(C)c(CO)s1 (single isomer, unassigned) [Compound 83]	23 ± 0.6		1.7 ± 0.2	
CC(C)(N)C(NC(=O)c1ccc(-c2ccc(Cl)c(F)c2)[nH]1)c1ncc(CO)s1 (single isomer, unassigned) [Compound 124]	16.3 ± 0.6		0.46 ± 0.01	
Cc1cc(-c2ccc(Cl)cc2)[nH]c1C(=O)NC(CN)c1nc(C)c(CO)s1 (single isomer, unassigned) [Compound 70]	26.4 ± 0.7		1.1 ± 0.3	
CNCC(NC(=O)c1ccc(-c2ccc(C)c(F)c2)[nH]1)c1nc(C)c(CO)s1 (single isomer, unassigned) [Compound 55]	~40			
Cc1cc(C(=O)NC(CN)c2nc(C)c(CO)s2)[nH]c1-c1ccc(Cl)cc1 (single isomer, unassigned) [Compound 98]	22.2 ± 0.3			
Cc1ccc(-c2ccc(C(=O)NC(c3nc(C)c(CO)[nH]3)C3CCCCN3)[nH]2)cc1F (single isomer, unassigned) [Compound 38]	34 ± 0.2		17 ± 0.2	

SMILES	CC50 (TZM-bl cells) [µM]	IC50 [1, 2] [µM]	IC50 [1] [µM]	percentage in brackets after CC50 >51 (TZM-bl cells; printed "(30%)" without explanation, presumably toxicity at 51 μM) [%]
Cc1nc(C(NC(=O)c2ccc(-c3ccc(Cl)cc3)[nH]2)C(C)(C)N)sc1CO (single isomer, unassigned) [Compound 110]	20.6 ± 1.2		1.1 ± 0.2	
CNCCC(NC(=O)c1ccc(-c2ccc(C)c(F)c2)[nH]1)c1nc(C)c(CO)s1 (single isomer, unassigned) [Compound 79]	38.9 ± 2.1		1.6 ± 0.4	
Cc1nc(C(CN)NC(=O)c2ccc(-c3ccc(F)c(F)c3)[nH]2)sc1CO (single isomer, unassigned) [Compound 122]	> 51			30
Cc1nc(C(NC(=O)c2ccc(-c3ccc(Cl)c(F)c3)[nH]2)C(C)(C)N)sc1CO (single isomer, unassigned) [Compound 112]	13.9 ± 0.7		0.27 ± 0.04	
COc1cc(C(=O)NC(CN)c2nc(C)c(CO)s2)[nH]c1-c1ccc(Cl)cc1 (single isomer, unassigned) [Compound 106]	22.2 ± 2.5		12.4 ± 2.5	
Cc1nc(C(CN(C)C)NC(=O)c2ccc(-c3ccc(Cl)cc3)[nH]2)sc1CO (single isomer, unassigned) [Compound 63]	~30			
Cc1nc(C(CNC(=N)N)NC(=O)c2ccc(-c3ccc(Cl)cc3)[nH]2)sc1CO (single isomer, unassigned) [Compound 46]	> 37		≥ 20	
Cc1nc(C(CN)NC(=O)c2ccc(-c3ccc(Cl)cc3)[nH]2)sc1CN (single isomer, unassigned) [Compound 108]	14.6 ± 0.2	12.1 ± 0.5		
Cc1ccc(-c2ccc(C(=O)NC(CN)c3nc(C)c(CO)s3)[nH]2)cc1F (single isomer, unassigned) [Compound 44]	≥ 34		1.1 ± 0.1	
COc1ccc(-c2ccc(C(=O)NC(CN)c3ncc(CO)s3)[nH]2)cc1OC (single isomer, unassigned) [Compound 130]	> 74.5		> 74.5	
Cc1nc(C(CCN(C)C)NC(=O)c2ccc(-c3ccc(Cl)c(F)c3)[nH]2)sc1CO (single isomer, unassigned) [Compound 75]	21.3 ± 0.6		1.5 ± 0.3	
Cc1ccc(-c2ccc(C(=O)NC(CNC(=N)N)c3nc(C)c(CO)s3)[nH]2)cc1F (single isomer, unassigned) [Compound 50]	> 37		> 20	
CNCC(NC(=O)c1ccc(-c2cc(F)c(Cl)c(F)c2)[nH]1)c1ncc(CO)s1 (single isomer, unassigned) [Compound 127]	13.9 ± 0.7	0.42 ± 0.2		
Cc1ccc(-c2ccc(C(=O)NC(c3nc(C)c(CCO)s3)C3CCCCN3)[nH]2)cc1F (single isomer, unassigned) [Compound 25]	15.3 ± 0.2		6.3 ± 0.3	
CNCC(NC(=O)c1ccc(-c2ccc(Cl)cc2)[nH]1)c1nc(C)c(CO)s1 (single isomer, unassigned) [Compound 59]	~22			
Cc1cc(-c2ccc(Cl)cc2)[nH]c1C(=O)NC(CN)c1nc(C)c(CO)s1 (single isomer, unassigned) [Compound 69]	27.2 ± 0.8			
CNc1cc(NC(=O)c2ccc(-c3ccc(F)c(Cl)c3)[nH]2)nc(NC(=N)N)n1 [Compound 53]	≥ 36			
Cc1nc(C(CN)NC(=O)c2cnc(-c3ccc(Cl)cc3)[nH]2)sc1CO (single isomer, unassigned) [Compound 94]	> 51			
Cc1nc(C(CN)NC(=O)c2ccc(-c3ccc(Cl)c(F)c3)[nH]2)sc1CO (single isomer, unassigned) [Compound 42]	≥ 33			
Cc1nc(C(CN)NC(=O)c2ccc(-c3ccc(Cl)c(F)c3)[nH]2)sc1CO (single isomer, unassigned) [Compound 52]	50.5 ± 1.3			
